Holding throughout (format): cell-based
Test [1] deals with hepatocellular carcinoma cell line Hep3B. Description: Growth inhibition of Hep3B cells, 48 hr treatment, Hoechst 33342 nucleus count (GE InCell 2200). Particulars: Homo sapiens, Table 5, ratio of number of tumor cells treated with 10 μM compound to non-treated cells. A digest of the protocol: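 Compound exposure lasted 48 hr at 37° C, 5% CO2. Surviving nuclei were counted after Hoechst 33342 staining, and survival was expressed as the treated/non-treated cell number ratio, including the ratio at 10 μM compound.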

For test [2], the system named is Hep3B hepatocellular carcinoma cell line. Nature of the test: MTS cell viability assay (NCI-60 methodology), GI50/LC50, Hep3B. Particulars: Homo sapiens, 48 h, Hep3B cells, 2 days incubation with compound. On the procedure:
(§1) The number of treated cells was determined by GE InCell 2200 system, and treated cells were stained with Hoechst 33342 which can reveal the remained nucleus in culture plate. The proportion of survival cells then were calculated with the ratio of treated/non-treated cells. The growth inhibition/cytotoxic effect of selected compounds were evaluated by the following protocol of NCI-60 screening platform. The human tumor cell lines are plating on a 96 well plate in a fixed density 24 hr prior compound treatment. Compounds with multiple concentrations are then added into each well for further 48 hr incubation. Cell viability is assessed by MTS method and the potency of compound is represented by GI50 and LC50 calculated by MTS result.
(§2) The cell viability measurement is based on the NCI-60 screening methodology (Nat. Rev. Cancer 6, 813-823, 2006). Briefly, cells are inoculated into 96-well plates at the optimal plating density. After 24 h, one of the two plates for each cell line is processed to determine a time zero cell viability (Tz) by MTS assay (Promega). Compounds are added over a 2-fold serial dilution to provide a total five drug concentrations plus DMSO control. Plates are incubated for a further 2 days, then measured cell viability by MTS assay [control growth (C) and test growth in the presence of drug at the five concentration levels (Ti)]. Growth inhibition of 50% (GI50) is calculated from [(Ti−Tz)/(C−Tz)]×100=50, which is the drug concentration resulting in a 50% reduction of control cells during the drug incubation. The LC50 is calculated from [(Ti−Tz)/Tz]×100=−50, which is the drug concentration resulting in a 50% reduction at the end of the drug treatment as compared to that at the beginning.
(§3) Herein, Hep3B refers to hepatocellular carcinoma cell line, SW480 refers to colon adenocarcinoma cell line, and NCI-H460 refers to human lung cancer cell line.
On the technique in general: Tetrazolium dyes change colour on reduction, which living cells bring about.

In test [3] the test system is SW480 colon adenocarcinoma cell line. Nature of the test: MTS cell viability assay (NCI-60 methodology), GI50/LC50, SW480. The conditions noted are these: Homo sapiens, 48 h, SW480 cells, 2 days incubation with compound. How it is done: as §1, §2, §3
Test [4] deals with NCI-H460 human lung cancer cell line. Description: MTS cell viability assay (NCI-60 methodology), GI50/LC50, NCI-H460. The conditions noted are these: 48 h, NCI-H460 cells, 2 days incubation with compound. On the procedure:
as §1, §2, §3

A word on the viability: it is a read-out of living cells in per cent, often relative to untreated cells. In general, GI50 refers to the concentration giving 50% growth inhibition. The LC50 is the concentration lethal to half of the exposed cells or organisms. Regarding `CCOc1ccc(-c2nc(NC(=O)c3ccc([N+](=O)[O-])s3)sc2Oc2cccc(C(F)(F)F)c2)cc1` [Compound 5-23, N-(4-(4-ethoxyphenyl)-5-(3-(trifluoromethyl)phenoxy)thiazol-2-yl)-5-nitrothiophene-2-carboxamide], in test [1], the viability at 10 µM turned out to be 30%. Besides, in test [2], the GI50 worked out at 1220 nM and the LC50 stood at 3960 nM. For the same molecule, in test [3], the GI50 was found to be 6420 nM. For the same molecule, in test [4], the GI50 was found to be 2490 nM and the LC50 (concentration giving 50% net cell loss versus time zero, NCI-60 definition) was determined as 4430 nM.

As to `CCCOc1ccc(-c2nc(NC(=O)c3ccc([N+](=O)[O-])s3)sc2Oc2cccc(F)c2)cc1` [Compound 5-24, N-(5-(3-fluorophenoxy)-4-(4-propoxyphenyl)thiazol-2-yl)-5-nitrothiophene-2-carboxamide], in test [1], the viability at 10 µM was determined as 28%. Also, in test [2], the GI50 turned out to be 950 nM and the LC50 amounted to 2070 nM. Besides, in test [3], the GI50 was 1140 nM and the LC50 (NCI-60 lethal concentration, 50% net cell loss vs time zero) amounted to 4.23 µM. Besides, in test [4], the GI50 amounted to 1570 nM and the LC50 (concentration giving 50% net cell loss versus time zero, NCI-60 definition) is 3790 nM.

Consider `CCCOc1ccc(-c2nc(NC(=O)c3ccc([N+](=O)[O-])s3)sc2Oc2ccc(C(F)(F)F)cc2)cc1` [Compound 5-26, 5-nitro-N-(4-(4-propoxyphenyl)-5-(4-(trifluoromethyl)phenoxy)thiazol-2-yl)thiophene-2-carboxamide], for which the viability at 10 µM in test [1] worked out at 24%. In addition, in test [2], the GI50 was 830 nM and the LC50 amounted to 1180 nM. Besides, in test [3], the GI50 was 1050 nM and the LC50 (NCI-60 lethal concentration, 50% net cell loss vs time zero) came out at 3.44 µM. Also, in test [4], the GI50 turned out to be 1150 nM and the LC50 (concentration giving 50% net cell loss versus time zero, NCI-60 definition) stood at 3200 nM.

Regarding `CCCOc1ccc(-c2nc(NC(=O)c3ccc([N+](=O)[O-])s3)sc2Oc2ccc(Br)cc2)cc1` [Compound 5-27, N-(5-(4-bromophenoxy)-4-(4-propoxyphenyl)thiazol-2-yl)-5-nitrothiophene-2-carboxamide], the viability at 10 µM in test [1] is 31%. Besides, in test [2], the GI50 stood at 820 nM and the LC50 amounted to 1510 nM. In test [3], the GI50 is 1230 nM and the LC50 (NCI-60 lethal concentration, 50% net cell loss vs time zero) worked out at 4.87 µM. Further, in test [4], the GI50 is 1960 nM and the LC50 (concentration giving 50% net cell loss versus time zero, NCI-60 definition) was 4740 nM.

In the case of `CCOc1ccc(-c2nc(NC(=O)c3ccc([N+](=O)[O-])s3)sc2Oc2ccc(C(C)(C)C)cc2)cc1` [Compound 5-29, N-(5-(4-(tert-butyl)phenoxy)-4-(4-ethoxyphenyl)thiazol-2-yl)-5-nitrothiophene-2-carboxamide], the viability at 10 µM in test [1] was 42%. In addition, in test [2], the GI50 was determined as 1840 nM and the LC50 came to 3860 nM. In addition, in test [3], the GI50 turned out to be 3340 nM and the LC50 (NCI-60 lethal concentration, 50% net cell loss vs time zero) was 9.95 µM. Further, in test [4], the GI50 came out at 3240 nM and the LC50 (concentration giving 50% net cell loss versus time zero, NCI-60 definition) amounted to 9120 nM.

For `CCCOc1ccc(-c2nc(NC(=O)c3ccc([N+](=O)[O-])s3)sc2Oc2ccc(F)cc2)cc1` [Compound 5-30, N-(5-(4-fluorophenoxy)-4-(4-propoxyphenyl)thiazol-2-yl)-5-nitrothiophene-2-carboxamide], the viability at 10 µM in test [1] was 40%. In test [2], the GI50 came to 920 nM and the LC50 amounted to 2230 nM. Moreover, in test [3], the GI50 was determined as 530 nM and the LC50 (NCI-60 lethal concentration, 50% net cell loss vs time zero) turned out to be 2.82 µM. In addition, in test [4], the GI50 came out at 700 nM and the LC50 (concentration giving 50% net cell loss versus time zero, NCI-60 definition) stood at 2150 nM.

Regarding `O=C(Nc1nc(-c2ccc(F)cc2)c(Oc2ccccc2OC(F)(F)F)s1)c1ccc([N+](=O)[O-])s1` [Compound 5-32, N-(4-(4-fluorophenyl)-5-(2-(trifluoromethoxy)phenoxy)thiazol-2-yl)-5-nitrothiophene-2-carboxamide], in test [1], the viability at 10 µM came to 48%. Further, in test [2], the GI50 is 460 nM and the LC50 was 2170 nM. In addition, in test [3], the GI50 is 400 nM and the LC50 (NCI-60 lethal concentration, 50% net cell loss vs time zero) came to 2.26 µM. Besides, in test [4], the GI50 is 690 nM and the LC50 (concentration giving 50% net cell loss versus time zero, NCI-60 definition) was determined as 1730 nM.

On to `CCCOc1ccc(-c2nc(NC(=O)c3ccc([N+](=O)[O-])s3)sc2Oc2ccc(C(F)(F)F)cc2Cl)cc1` [Compound 5-38, N-(5-(2-chloro-4-(trifluoromethyl)phenoxy)-4-(4-propoxyphenyl)thiazol-2-yl)-5-nitrothiophene-2-carboxamide], for which the viability at 10 µM in test [1] came out at 41%. In test [2], the GI50 came out at 370 nM and the LC50 worked out at 1710 nM. Also, in test [3], the GI50 was 770 nM and the LC50 (NCI-60 lethal concentration, 50% net cell loss vs time zero) is 3.22 µM. In test [4], the GI50 is 570 nM and the LC50 (concentration giving 50% net cell loss versus time zero, NCI-60 definition) was determined as 1430 nM.

On to `CCCOc1ccc(-c2nc(NC(=O)c3ccc([N+](=O)[O-])s3)sc2Oc2ccc(C#N)cc2)cc1` [Compound 5-39, N-(5-(4-cyanophenoxy)-4-(4-propoxyphenyl)thiazol-2-yl)-5-nitrothiophene-2-carboxamide], for which, in test [1], the viability at 10 µM was 56%. Further, in test [2], the GI50 worked out at 890 nM and the LC50 amounted to 5530 nM. Moreover, in test [3], the GI50 is 1490 nM and the LC50 (NCI-60 lethal concentration, 50% net cell loss vs time zero) was 6.54 µM. In addition, in test [4], the GI50 amounted to 230 nM and the LC50 (concentration giving 50% net cell loss versus time zero, NCI-60 definition) amounted to 1160 nM.

Consider `CCCOc1ccc(-c2nc(NC(=O)c3ccc([N+](=O)[O-])o3)sc2Oc2ccccc2)cc1` [Compound 5-48, 5-nitro-N-(5-phenoxy-4-(4-propoxyphenyl)thiazol-2-yl)furan-2-carboxamide], for which, in test [1], the viability at 10 µM was 37%. The GI50 in test [2] turned out to be 5220 nM; in test [3], 1810 nM; in test [4] it was 1400 nM. In addition, the LC50 in test [2] was 9410 nM.

As for `CCCCOc1ccc(-c2nc(NC(=O)c3ccc([N+](=O)[O-])s3)sc2Oc2ccccc2)cc1` [Compound 5-56, N-(4-(4-butoxyphenyl)-5-phenoxythiazol-2-yl)-5-nitrothiophene-2-carboxamide], in test [1], the viability at 10 µM came to 40%. For the same molecule, in test [2], the GI50 worked out at 550 nM and the LC50 was 2310 nM. In test [3], the GI50 was found to be 1540 nM and the LC50 (NCI-60 lethal concentration, 50% net cell loss vs time zero) turned out to be 9.32 µM. In test [4], the GI50 was determined as 700 nM and the LC50 (concentration giving 50% net cell loss versus time zero, NCI-60 definition) was determined as 1550 nM.

Regarding `CCC(C)(C)c1ccc(Oc2sc(NC(=O)c3ccc([N+](=O)[O-])s3)nc2-c2ccc(F)cc2)cc1` [Compound 5-62, N-(4-(4-fluorophenyl)-5-(4-(tert-pentyl)phenoxy)thiazol-2-yl)-5-nitrothiophene-2-carboxamide], in test [1], the viability at 10 µM came out at 45%. Moreover, in test [2], the GI50 turned out to be 450 nM and the LC50 turned out to be 1160 nM. For the same molecule, in test [3], the GI50 came out at 760 nM and the LC50 (NCI-60 lethal concentration, 50% net cell loss vs time zero) is 2.25 µM. In test [4], the 50% growth inhibitory concentration (GI50) came to 590 nM and the LC50 (concentration giving 50% net cell loss versus time zero, NCI-60 definition) turned out to be 1240 nM.
